Assays:
Assay type in all cases: in vivo
[1] = test system: seizures in human patient; test: Example 8 pediatric patient with Lennox-Gastaut; details: THC 8 mg BID (16 mg TDD) orally in combination with Epidiolex (CBD) 150 mg BID
Method: The other pediatric patient was a patient, diagnosed with Lennox-Gastout in 2008, suffered from multiple seizure types and went through corpus callosotomy in January 2017 after failure of vagus nerve stimulation (VNS). […] The patient was first evaluated for cannabinoid treatment on Aug. 3, 2017, and was prescribed CBD with 0.3% THC 10 mg BID (Charlotte's Web). […] After discharge from the hospital, the patient's GTCs worsened and were no longer responsive to felbamate. […] This patient was 35.45 kg, so the CBD daily dose was 3.3 mg/kg (well below the therapeutic dosages for Epidiolex). However patient was still having frequent tonic, myoclonic, and GTC seizures per day. […] When the dose was 300 mg Epidiolex daily, the patient was 40.5 kg, so the CBD daily dose was 7.4 mg/kg (below the therapeutic dosages for Epidiolex for Lennox Gastaut Syndrome).

[2] = test system: seizures in human patient; test: Example 3 human patient, GTC and complex partial seizures
Source text: A patient first started having GTC and complex partial (CP) seizures. […] The patient was referred for evaluation for initiation of cannabinoid/THC treatment in March 2014.

[3] = test system: GTC seizures in human patient; test: Example 4 human patient, idiopathic GTC seizures
Source text: A person's first evaluation for cannabinboid therapy was on Feb. 16, 2010. […] Initially in 2010, the patient was smoking cannabis in the day and taking a THC cannabis extract at night orally.

[4] = smoking cannabis during the day and 12.5 mg of THC orally at bedtime

For `CCCCCc1cc(O)c2c(c1)OC(C)(C)[C@@H]1CCC(C)=C[C@@H]21` [THC, Delta-9-tetrahydrocannabinol], the effect on seizures [1] was “further reduction in seizure frequency and duration”, the seizure status ([2]; 20 milligrams THC cannabis extract liquid orally in the morning and 5 mg THC content pill in the evening) was “remained seizure free” and the seizure status ([2]; inhaled 16 mg cannabis wax in the morning and oral 20 milligrams THC cannabis extract liquid at night) was “seizure free”. The “seizures after resuming regimen” value ([3]; cannabis smoking during the day and THC cannabis extract orally at night) was “the seizures stopped”, the seizure control ([3]; inhaled and orally administered THC cannabis products, no anti-epileptic drugs) was “well controlled” and the seizure status [3, 4] was “had no seizures”. The seizure-free period [3, 4] was 4 years.

From patent US12036228B2, “Treatment of seizure disorders” (Shackelford Pharma Inc., priority 2022, dated 2024)
